According to patent US20260138976A1 (Hoffmann-La Roche Inc., priority 2022, published 2026):

Legend:
[1] = biological target: T1, DGKα (hDGKalpha(1-735)-N-His) (Homo sapiens, UniProt P23743); test: In vitro DGK inhibition assay, DGKalpha ADP Glo (in house); type: biochemical; details: 4 nM DGKα, 25 μM ATP, 125 uM DLG in liposomes, 1 hour reaction
T1 construct: hDGKalpha(1-735)-N-His; His (N); made in house; host or cells: Sf21 insect cells (baculovirus)
Method in brief: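 Full-length His-tagged human DGKα (4 nM) or DGKζ (2 nM), expressed in Sf21 cells, phosphorylated 125 µM DLG in PS/PC liposomes with ATP at 25 µM (α) or 50 µM (ζ) for 1 h. ADP was measured by ADP-Glo luminescence. Compounds were tested as 11-point 1:3 series in 2% DMSO.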

primary human T-cells = test: Proliferation assay (5 days, CellTiter-Glo, CD3-stimulated T-cells); type: cell-based; details: for Emax proliferation (% activation): CD3 condition, normalised to DMSO (neutral) and 20 μM reference compound A1 = 100%; for EC50: Homo sapiens, T-cell, 120 h, CD3-stimulated primary human T-cells, 5 days, CellTiter-Glo, fitted sigmoidal curve, read-out: Tcell Proliferation CD3 EC50
Method in brief: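 Expanded primary human T-cells, 100 k cells/well, were stimulated with plate-coated CD3 antibody (donor-titrated) and given compound in a 5 or 6 pt dose response from 20 μM or 10 μM final top, 0.2% DMSO final. ATP was read by CellTiter-Glo after 5 days. EC50 and Emax were reported as % of 20 μM reference compound A1.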

T1 sequence (P23743 whole entry): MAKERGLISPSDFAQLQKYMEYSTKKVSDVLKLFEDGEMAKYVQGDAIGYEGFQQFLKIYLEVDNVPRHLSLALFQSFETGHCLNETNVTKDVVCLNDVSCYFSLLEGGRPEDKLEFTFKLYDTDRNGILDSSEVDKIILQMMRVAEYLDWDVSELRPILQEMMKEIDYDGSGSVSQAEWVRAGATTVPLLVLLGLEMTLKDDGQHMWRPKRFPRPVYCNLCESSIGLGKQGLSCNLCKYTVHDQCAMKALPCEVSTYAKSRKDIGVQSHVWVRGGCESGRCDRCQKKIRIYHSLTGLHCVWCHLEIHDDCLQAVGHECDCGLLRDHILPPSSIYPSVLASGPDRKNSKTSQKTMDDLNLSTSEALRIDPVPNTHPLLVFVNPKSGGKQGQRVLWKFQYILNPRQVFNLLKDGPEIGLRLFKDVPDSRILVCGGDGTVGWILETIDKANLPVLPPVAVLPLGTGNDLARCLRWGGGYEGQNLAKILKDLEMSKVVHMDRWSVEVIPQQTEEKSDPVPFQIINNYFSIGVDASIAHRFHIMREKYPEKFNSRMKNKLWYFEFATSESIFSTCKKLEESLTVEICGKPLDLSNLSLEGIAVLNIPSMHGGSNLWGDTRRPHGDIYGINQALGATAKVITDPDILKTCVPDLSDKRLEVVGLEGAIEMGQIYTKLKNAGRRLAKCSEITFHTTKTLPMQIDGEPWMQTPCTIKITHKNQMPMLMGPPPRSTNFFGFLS

IC50 [1] [nM]	Structure (SMILES)	Emax proliferation (% activation) (primary human T-cells)	EC50 (primary human T-cells) [nM]
2360	Cn1ccc(-c2ccc(CN3C(=O)[C@@H](N)CS(=O)(=O)c4cc(F)c(-c5nnc(C(C)(C)C)o5)cc43)cc2)n1 [Example 1, (3R)-3-amino-7-(5-tert-butyl-1,3,4-oxadiazol-2-yl)-8-fluoro-5-[[4-(1-methylpyrazol-3-yl)phenyl]methyl]-1,1-dioxo-2,3-dihydro-1λ^6,5-benzothiazepin-4-one]	73	843
613	Cc1noc(-c2ccc(CN3C(=O)[C@@H](N)CS(=O)(=O)c4cc(F)c(-c5nnc(C(C)(C)C)o5)cc43)cc2)n1 [Example 2]	143	296
1870	CC(C)Nc1nnc(-c2cc3c(cc2F)S(=O)(=O)C[C@H](N)C(=O)N3Cc2ccc(-c3noc(C(F)(F)F)n3)cc2)o1 [Example 6, (3R)-3-amino-8-fluoro-7-[5-(isopropylamino)-1,3,4-oxadiazol-2-yl]-1,1-dioxo-5-[[4-[5-(trifluoromethyl)-1,2,4-oxadiazol-3-yl]phenyl]methyl]-2,3-dihydro-1λ^6,5-benzothiazepin-4-one]	109	765
> 62500	CC(C)(C)c1nc(-c2cc3c(cc2F)S(=O)(=O)C[C@H](N)C(=O)N3Cc2ccc(-c3ccc(CO)cc3)nc2)no1 [Example 7, (3R)-3-amino-7-(5-tert-butyl-1,2,4-oxadiazol-3-yl)-8-fluoro-5-[[6-[4-(hydroxymethyl)phenyl]-3-pyridyl]methyl]-1,1-dioxo-2,3-dihydro-1λ^6,5-benzothiazepin-4-one]	97	3520
40300	N[C@H]1CS(=O)(=O)c2cc(F)c(-c3noc(N4CCCC4)n3)cc2N(Cc2ccc(-c3noc(C(F)(F)F)n3)nc2)C1=O [Example 15, (3R)-3-amino-8-fluoro-1,1-dioxo-7-(5-pyrrolidin-1-yl-1,2,4-oxadiazol-3-yl)-5-[[6-[5-(trifluoromethyl)-1,2,4-oxadiazol-3-yl]-3-pyridyl]methyl]-2,3-dihydro-1λ^6,5-benzothiazepin-4-one]	64	3200
4960	Cc1noc(-c2ccc(CN3C(=O)[C@@H](N)CS(=O)(=O)c4ccc(-c5nnc(C(C)(C)C)o5)cc43)cc2)n1 [Example 20, (3R)-3-amino-7-(5-tert-butyl-1,3,4-oxadiazol-2-yl)-5-[[4-(3-methyl-1,2,4-oxadiazol-5-yl)phenyl]methyl]-1,1-dioxo-2,3-dihydro-1λ^6,5-benzothiazepin-4-one]	82	2380
16800	Cn1ccc(-c2ccc(CN3C(=O)[C@@H](N)CS(=O)(=O)c4ccc(-c5nnc(C(C)(C)C)o5)cc43)cc2)n1 [Example 21]	63	7060
1530	CC(C)(C)c1nnc(-c2ccc3c(c2)N(Cc2ccc(-c4noc(C(F)(F)F)n4)cc2)C(=O)[C@@H](N)CS3(=O)=O)o1 [Example 23, (3R)-3-amino-7-(5-tert-butyl-1,3,4-oxadiazol-2-yl)-1,1-dioxo-5-[[4-[5-(trifluoromethyl)-1,2,4-oxadiazol-3-yl]phenyl]methyl]-2,3-dihydro-1λ^6,5-benzothiazepin-4-one]	136	316
3540	CC(C)(C)c1nnc(-c2ccc3c(c2)N(Cc2ccc(-n4cc(C(F)(F)F)cn4)cc2)C(=O)[C@@H](N)CS3(=O)=O)o1 [Example 25, (3R)-3-amino-7-(5-tert-butyl-1,3,4-oxadiazol-2-yl)-1,1-dioxo-5-[[4-[4-(trifluoromethyl)pyrazol-1-yl]phenyl]methyl]-2,3-dihydro-1λ^6,5-benzothiazepin-4-one]	131	2930
2950	CC(C)(C)c1nnc(-c2ccc3c(c2)N(Cc2ccc(-n4ccc(C(F)(F)F)n4)cc2)C(=O)[C@@H](N)CS3(=O)=O)o1 [Example 27]	212	252
37300	CC(C)(C)c1nnc(-c2ccc3c(c2)N(Cc2ccc(-n4cnc(C(F)(F)F)c4)cc2)C(=O)[C@@H](N)CS3(=O)=O)o1 [Example 28, (3R)-3-amino-7-(5-tert-butyl-1,3,4-oxadiazol-2-yl)-1,1-dioxo-5-[[4-[4-(trifluoromethyl)imidazol-1-yl]phenyl]methyl]-2,3-dihydro-1λ^6,5-benzothiazepin-4-one]	108	3510
23800	CC(N)(c1nnc(-c2ccc3c(c2)N(Cc2ccc(-c4noc(CC(F)(F)F)n4)cc2)C(=O)[C@@H](N)CS3(=O)=O)o1)C(F)(F)F (stereo partly drawn) [Example 33, (3R)-3-amino-7-[5-(1-amino-2,2,2-trifluoro-1-methyl-ethyl)-1,3,4-oxadiazol-2-yl]-1,1-dioxo-5-[[4-[5-(2,2,2-trifluoroethyl)-1,2,4-oxadiazol-3-yl]phenyl]methyl]-2,3-dihydro-1λ^6,5-benzothiazepin-4-one]	105	3190
16200	CC(C)(C#N)c1nnc(-c2ccc3c(c2)N(Cc2ccc(-c4ccc(C(F)(F)F)cc4)cc2)C(=O)[C@@H](N)CS3(=O)=O)o1 [Example 46]	94	116
7280	CC(C)(C#N)c1nnc(-c2ccc3c(c2)N(Cc2ccc(-c4ccc(C(F)(F)F)cn4)cc2)C(=O)[C@@H](N)CS3(=O)=O)o1 [Example 47]	159	459
> 62500	CC1(c2nnc(-c3ccc4c(c3)N(Cc3ccc(-c5ccc(C(F)(F)F)cc5)cc3)C(=O)[C@@H](N)CS4(=O)=O)o2)CCO1 (stereo partly drawn) [Example 48, (3R)-3-amino-7-[5-(2-methyloxetan-2-yl)-1,3,4-oxadiazol-2-yl]-1,1-dioxo-5-[[4-[4-(trifluoromethyl)phenyl]phenyl]methyl]-2,3-dihydro-1lambda6,5-benzothiazepin-4-one]	139	321
25200	C[C@@](N)(c1nnc(-c2ccc3c(c2)N(Cc2ccc(-c4noc(C(F)(F)F)n4)cc2)C(=O)[C@@H](N)CS3(=O)=O)o1)C(F)(F)F [Example 52, (3R)-3-amino-7-[5-[(1R)-1-amino-2,2,2-trifluoro-1-methyl-ethyl]-1,3,4-oxadiazol-2-yl]-1,1-dioxo-5-[[4-[5-(trifluoromethyl)-1,2,4-oxadiazol-3-yl]phenyl]methyl]-2,3-dihydro-1λ^6,5-benzothiazepin-4-one]	126	196
43400	C[C@](N)(c1nnc(-c2ccc3c(c2)N(Cc2ccc(-c4noc(C(F)(F)F)n4)cc2)C(=O)[C@@H](N)CS3(=O)=O)o1)C(F)(F)F [Example 53, (3R)-3-amino-7-[5-[(1S)-1-amino-2,2,2-trifluoro-1-methyl-ethyl]-1,3,4-oxadiazol-2-yl]-1,1-dioxo-5-[[4-[5-(trifluoromethyl)-1,2,4-oxadiazol-3-yl]phenyl]methyl]-2,3-dihydro-1λ^6,5-benzothiazepin-4-one]	120	2220
> 62500	N[C@H]1CS(=O)(=O)c2ccc(-c3nnc(C4(CO)CCCO4)o3)cc2N(Cc2ccc(-c3ccc(C(F)(F)F)cc3)cc2)C1=O (stereo partly drawn) [Example 55]	59	1090
33700	COc1ccc(-c2ccc(CN3C(=O)[C@@H](N)CS(=O)(=O)c4ccc(-c5nnc(C6(CO)CCCO6)o5)cc43)cc2)cc1 (stereo partly drawn) [Example 63, (3R)-3-amino-7-[5-[2-(hydroxymethyl)tetrahydrofuran-2-yl]-1,3,4-oxadiazol-2-yl]-5-[[4-(4-methoxyphenyl)phenyl]methyl]-1,1-dioxo-2,3-dihydro-1λ^6,5-benzothiazepin-4-one]	103	1060
2490	COC(F)(c1nnc(-c2ccc3c(c2)N(Cc2ccc(-c4nnc(C5CC5)o4)cc2)C(=O)[C@@H](N)CS3(=O)=O)o1)C(F)(F)F (stereo partly drawn) [Example 65]	102	681

Structure (SMILES)	IC50 [1] [nM]	Emax proliferation (% activation) (primary human T-cells)	EC50 (primary human T-cells) [nM]
COC(=O)N1CC2CC(c3nnc(-c4ccc5c(c4)N(Cc4ccc(-c6ccc(OC)cc6)cc4)C(=O)[C@@H](N)CS5(=O)=O)o3)(C2)C1 [Example 59, methyl 1-[5-[(3R)-3-amino-5-[[4-(4-methoxyphenyl)phenyl]methyl]-1,1,4-trioxo-2,3-dihydro-1λ^6,5-benzothiazepin-7-yl]-1,3,4-oxadiazol-2-yl]-3-azabicyclo[3.1.1]heptane-3-carboxylate]	3040	103	29
COC(=O)N1CC2CC(c3nnc(-c4ccc5c(c4)N(Cc4ccc(-c6ccc(C(F)(F)F)cc6)cc4)C(=O)[C@@H](N)CS5(=O)=O)o3)(C2)C1 [Example 60, methyl 1-[5-[(3R)-3-amino-1,1,4-trioxo-5-[[4-[4-(trifluoromethyl)phenyl]phenyl]methyl]-2,3-dihydro-1λ^6,5-benzothiazepin-7-yl]-1,3,4-oxadiazol-2-yl]-3-azabicyclo[3.1.1]heptane-3-carboxylate]	3630	110	41.7
